Measurements reported in US11572359B2, “PARP/PI3K double-target inhibit containing pyridopyrimidine structure” (CHINA PHARMACEUTICAL UNIVERSITY, priority 2017, dated 2023).
Where two headings read alike, the source gives them in different places.

How the values were obtained:
[1] = biological target: PI3Kα (Homo sapiens, UniProt P42336); test: PI3Kα inhibitory activity at the enzyme level (ADP detection by luciferase method); format: biochemical; conditions: for inhibition at 0.1 µM: 100 nM compound, read-out: Inhibition rate on PI3Kα (100 nM)
Description: Experimental method for PI3Kα inhibitory activity: simultaneously adding 40 mM Tris, pH 7.4, 10 mM MgCl2, 0.1 mg/ml BSA, 1 mM DTT, 10 μM ATP, PI3Kα kinase and a kinase substrate into different concentrations of compounds to be sieved to form a 50 μL reaction system, after reaction at 30° C. for 40 minutes, detecting an ADP content in the system through a luciferase method, and then after reaction for 5 minutes, detecting a chemiluminescence signal on an MD-SpectraMax M5 multi-function microplate reader, wherein the intensity of a value of the chemiluminescence signal is in direct proportion to […]. The detected value of the chemiluminescence signal is substituted into the following formula: Enzyme activity percentage (%)=(OD value administration hole-OD value background)/(OD value control hole−OD value background)×100%
(§1) Method for determining IC50 of PARP-1 and PI3Kα: diluting a drug concentration according to a three-fold concentration gradient, and detecting two duplicate wells at each concentration; taking the drug concentration as the abscissa and the percentage of enzyme activity corresponding to each concentration as the ordinate, and calculating to obtain inhibition IC50 values of all tested compounds by using Graphpad Prism5 for nonlinear regression.

[2] = test system: HCC1937 (human breast cancer cells); test: Tumor cell proliferation inhibition (SRB, 72 hours), HCC1937; format: cell-based
Description: (§2) Inoculating HCT116 (human colon cancer cells), HCC1937 (human breast cancer cells), MDA-MB-231 (human breast cancer cells) and MDA-MB-468 (human breast cancer cells) in a logarithmic growth phase with a certain quantity in a 96-well plate (200 μL/well) for culture for 24 hours so as to adhere to walls and then adding drugs. Arranging 3 duplicate wells for each drug concentration, and setting corresponding zero-cut holes and blank controls. After 72 hours of drug action, adding 50% TCA (50 μL/well) into adherent cells, fixing at 4° C. for 1 hour, pouring a fixing solution, washing for 5 times with distilled water, and naturally drying. Adding 100 μL of 4 mg/mL SRB into each well, staining at a room temperature for 15 minutes, discarding, washing for 5 times with 1% glacial acetic acid, and naturally drying. Finally, adding 150 μL of a 10 mM Tris solution into each well, shaking to be uniform, and measuring OD values at a wavelength of 565 nm using a wavelength-adjustable microplate reader (VERSAmax™, Molecular Device).

[3] = biological target: PARP-1 (Homo sapiens, UniProt P09874); test: PARP-1 inhibitory activity at the enzyme level (histone-coated plate, chemiluminescence); format: biochemical; conditions: for inhibition at 0.01 µM: 10 nM compound, read-out: Inhibition rate on PARP-1 (10 nM)
Description: Experimental method for PARP-1 inhibitory activity: taking out a 96-well plate pre-coated with histones, and adding a following enzyme reaction system and inhibitors of different concentrations into each well, including: 50 μL of a reaction buffer solution (Tris*HCl, pH 8.0), NAD^+, biotin-labeled activated DNA, PARP-1 enzyme, and an inhibitor; after reaction at a room temperature for 1 hour, adding 50 uL of avidin-labeled HRP into each well for reaction for 30 minutes; and then adding 100 μL of an HRP substrate, and detecting a chemiluminescence value on a SpectraMax M instrument. The percentage of enzyme activity is calculated by the following formula: Enzyme activity percentage (%)=(OD value administration hole-OD value background)/(OD value control hole−OD value background)×100%
as §1

[4] = test system: MDA-MB-468 (human breast cancer cells); test: Tumor cell proliferation inhibition (SRB, 72 hours), MDA-MB-468; format: cell-based
Description: as §2

[5] = test system: Human Breast Cancer MDA-MB-468 Cell Nude Mice Xenograft; test: Growth of human breast cancer MDA-MB-468 cell nude mice xenograft; format: in vivo; conditions: for Tumor Volumes / Tumor weights: abdominal cavity, once every 2 days; for Anti-tumor effect compared with the combination group olaparib (50 mg/kg)/BKM120 (27.5 mg/kg) (in words): p<0.05; for Inhibition of the growth of the MDA-MB-468 nude mice xenografts (in words) / Inhibition rate compared with positive drugs olaparib and BKM120 (in words): I-1 50 mg/kg, 1-3 50 mg/kg, olaparib 50 mg/kg/BKM120 27.5 mg/kg; for Tumor weights: after 34 days, in g (unit assumed)
Description: Preparing an MDA-MB-468 cell line in a logarithmic growth phase into a 2×10^7/mL cell suspension under sterile conditions, and inoculating 0.1 mL of the cell suspension under the skin of the right axilla of each nude mouse. Measuring the diameter of a nude mice xenograft with a vernier caliper, and randomly dividing the animals into groups after the tumors grew to about 100 mm^3. Dynamically observing an anti-tumor effect of the tested animals using a method of measuring the tumor diameter, wherein the frequency of measurements of the tumor diameter is once every 2 days, and the administration volume is 0.4 mL/20 g. After 34 days, killing the mice and surgically removing and weighing tumor pieces. The formula for calculating tumor volume (TV) is: TV=½×a×b^2, wherein a and b represent the length and the width respectively.

[6] = test system: MDA-MB-231 (human breast cancer cells); test: Tumor cell proliferation inhibition (SRB, 72 hours), MDA-MB-231; format: cell-based
Description: as §2

[7] = test system: HCT116 (human colon cancer cells); test: Tumor cell proliferation inhibition (SRB, 72 hours), HCT116; format: cell-based
Description: as §2

[8] = 12 days, 50 mg/kg (I-1: medium)
[9] = 18 days, 50 mg/kg (I-1: medium)
[10] = 24 days, 50 mg/kg (I-1: medium)
[11] = 30 days, 50 mg/kg (I-1: medium)
[12] = 34 days, 50 mg/kg (I-1: medium)

PARP-1, sequence (P09874 whole entry): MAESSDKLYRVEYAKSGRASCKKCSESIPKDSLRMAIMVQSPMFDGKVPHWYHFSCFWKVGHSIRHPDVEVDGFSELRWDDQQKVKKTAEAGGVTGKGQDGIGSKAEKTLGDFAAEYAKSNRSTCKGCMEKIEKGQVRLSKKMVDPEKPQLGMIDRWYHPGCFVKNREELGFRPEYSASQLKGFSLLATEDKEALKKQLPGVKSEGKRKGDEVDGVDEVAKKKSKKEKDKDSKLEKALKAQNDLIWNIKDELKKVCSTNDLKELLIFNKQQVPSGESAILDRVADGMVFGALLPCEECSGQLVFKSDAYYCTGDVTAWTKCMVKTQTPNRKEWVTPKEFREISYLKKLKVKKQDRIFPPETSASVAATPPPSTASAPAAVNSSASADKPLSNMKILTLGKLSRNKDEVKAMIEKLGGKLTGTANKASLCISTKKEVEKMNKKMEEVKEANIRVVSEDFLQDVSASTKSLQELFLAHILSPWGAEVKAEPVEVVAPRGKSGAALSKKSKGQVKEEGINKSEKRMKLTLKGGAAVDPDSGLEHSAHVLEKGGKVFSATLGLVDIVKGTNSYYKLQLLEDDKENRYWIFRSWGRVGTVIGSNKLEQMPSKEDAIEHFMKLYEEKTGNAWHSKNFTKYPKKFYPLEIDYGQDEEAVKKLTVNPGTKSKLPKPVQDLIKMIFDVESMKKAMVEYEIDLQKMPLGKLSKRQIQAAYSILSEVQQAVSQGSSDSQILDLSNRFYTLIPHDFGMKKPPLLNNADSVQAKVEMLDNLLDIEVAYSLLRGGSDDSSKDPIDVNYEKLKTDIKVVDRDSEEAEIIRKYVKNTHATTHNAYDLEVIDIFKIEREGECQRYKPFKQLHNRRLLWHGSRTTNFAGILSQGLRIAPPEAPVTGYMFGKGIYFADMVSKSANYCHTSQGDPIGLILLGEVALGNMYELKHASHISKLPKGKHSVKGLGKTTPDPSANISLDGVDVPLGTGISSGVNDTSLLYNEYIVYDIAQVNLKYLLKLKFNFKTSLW
PI3Kα, sequence (P42336 whole entry): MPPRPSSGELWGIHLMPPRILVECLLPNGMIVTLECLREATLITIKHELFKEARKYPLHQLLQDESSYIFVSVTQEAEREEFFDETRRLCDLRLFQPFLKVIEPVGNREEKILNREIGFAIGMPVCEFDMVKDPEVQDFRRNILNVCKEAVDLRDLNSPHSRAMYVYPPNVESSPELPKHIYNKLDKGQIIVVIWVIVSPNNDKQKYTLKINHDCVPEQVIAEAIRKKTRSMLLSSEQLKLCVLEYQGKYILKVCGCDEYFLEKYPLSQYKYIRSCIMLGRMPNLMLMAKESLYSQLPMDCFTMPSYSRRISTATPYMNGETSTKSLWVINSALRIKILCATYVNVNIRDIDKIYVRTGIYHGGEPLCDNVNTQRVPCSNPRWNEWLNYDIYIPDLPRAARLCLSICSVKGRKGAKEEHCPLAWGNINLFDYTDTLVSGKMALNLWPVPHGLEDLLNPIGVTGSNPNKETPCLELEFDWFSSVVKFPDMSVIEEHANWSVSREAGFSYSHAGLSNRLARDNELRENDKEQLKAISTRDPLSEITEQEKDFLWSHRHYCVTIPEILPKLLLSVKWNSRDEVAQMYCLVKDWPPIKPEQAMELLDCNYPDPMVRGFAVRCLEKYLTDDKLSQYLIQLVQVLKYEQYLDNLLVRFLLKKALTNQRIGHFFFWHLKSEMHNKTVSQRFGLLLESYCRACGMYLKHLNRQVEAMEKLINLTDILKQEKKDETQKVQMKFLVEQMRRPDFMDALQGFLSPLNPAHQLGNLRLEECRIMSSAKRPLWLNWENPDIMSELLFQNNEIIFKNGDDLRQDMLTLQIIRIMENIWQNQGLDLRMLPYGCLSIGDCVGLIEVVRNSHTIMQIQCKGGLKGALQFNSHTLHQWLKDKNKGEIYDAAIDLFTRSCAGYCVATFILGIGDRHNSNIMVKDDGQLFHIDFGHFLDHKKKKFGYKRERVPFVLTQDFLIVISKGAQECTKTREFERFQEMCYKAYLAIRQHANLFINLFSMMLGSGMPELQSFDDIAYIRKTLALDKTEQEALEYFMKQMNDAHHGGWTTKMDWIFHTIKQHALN
PI3Kα, sequence (P27986 whole entry partner): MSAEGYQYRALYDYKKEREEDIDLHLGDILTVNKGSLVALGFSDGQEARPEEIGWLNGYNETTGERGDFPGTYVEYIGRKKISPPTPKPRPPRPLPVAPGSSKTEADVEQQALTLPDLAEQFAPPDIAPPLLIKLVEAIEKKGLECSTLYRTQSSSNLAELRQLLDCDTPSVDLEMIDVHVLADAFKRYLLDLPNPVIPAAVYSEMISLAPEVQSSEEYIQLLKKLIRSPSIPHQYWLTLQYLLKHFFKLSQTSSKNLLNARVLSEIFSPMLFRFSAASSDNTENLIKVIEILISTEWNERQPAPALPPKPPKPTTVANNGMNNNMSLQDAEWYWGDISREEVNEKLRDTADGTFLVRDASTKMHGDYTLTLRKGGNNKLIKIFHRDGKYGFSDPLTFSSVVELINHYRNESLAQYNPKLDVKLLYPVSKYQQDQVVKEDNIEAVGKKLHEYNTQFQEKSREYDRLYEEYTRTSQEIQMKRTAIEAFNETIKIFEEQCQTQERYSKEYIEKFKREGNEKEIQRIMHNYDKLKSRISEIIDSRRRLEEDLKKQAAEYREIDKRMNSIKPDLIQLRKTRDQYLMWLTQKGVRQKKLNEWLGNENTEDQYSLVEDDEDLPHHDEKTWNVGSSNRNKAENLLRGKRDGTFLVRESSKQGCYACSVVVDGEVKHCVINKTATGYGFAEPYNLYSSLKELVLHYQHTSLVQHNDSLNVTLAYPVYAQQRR

SMILES | IC50 [1] | inhibition at 0.1 µM [1] | IC50 [2] | IC50 [3] | inhibition at 0.01 µM [3] | IC50 [4] | IC50 ([4]; Homo sapiens, MDA-MB-468, 72 h) | IC50 ([6]; Homo sapiens, MDA-MB-231, 72 h) | IC50 ([2]; Homo sapiens, HCC1937, 72 h) | IC50 ([7]; Homo sapiens, HCT-116, 72 h) | Tumor Volumes ([5]; 0 day, 50 mg/kg (I-1: medium)) | Anti-tumor effect compared with the combination group olaparib (50 mg/kg)/BKM120 (27.5 mg/kg) (in words) ([5]; 50 mg/kg) | Tumor Volumes ([5]; 6 days, 50 mg/kg (I-1: medium)) | Tumor Volumes [5, 8] | Tumor Volumes [5, 9] | Tumor Volumes [5, 10] | Tumor Volumes [5, 11] | Tumor Volumes [5, 12] | Inhibition of the growth of the MDA-MB-468 nude mice xenografts (in words) [5] | Inhibition rate compared with positive drugs olaparib and BKM120 (in words) [5] | other results
Nc1cc(C(F)(F)F)c(-c2nc3c(c(N4CCOCC4)n2)CCN(C(=O)c2cc(Cc4n[nH]c(=O)c5ccccc45)ccc2F)C3)cn1 [I-3, 4-(3-(2-(6-amino-4-(trifluoromethyl)pyridin-3-yl)-4-morpholinyl-5,6,7,8-tetrahydropyrido [3,4-d]pyrimidin-7-formyl)-4-fluorobenzyl)phthalazin-1(2H)-one] | 0.194 µM | 34% | 0.504 µM | 0.0049 µM | 55% | 0.266 µM |  |  | < 1 µM | < 1 µM | 93.00 mm^3 | obviously superior | 142.00 mm^3 | 190.90 mm^3 | 216.60 mm^3 | 241.50 mm^3 | 280.80 mm^3 | 310.10 mm^3 | significantly inhibit the growth | higher | IC50 [6]: 0.155 µM; Anti-tumor effect, ranking among the groups (in words) ([5]; 50 mg/kg): optimal; Tumor weights ([5]; 50 mg/kg (I-1: medium)): 0.44; IC50 [7]: 0.775 µM
C[C@@H]1CN(c2nc(-c3cnc(N)nc3)nc3c2CCN(C(=O)c2cc(Cc4n[nH]c(=O)c5ccccc45)ccc2F)C3)C[C@H](C)O1 [I-12, 4-(3-(2-(2-aminopyrimidin-5-yl)-4-((2S,6R)-2,6-dimethylmorpholinyl)-5,6,7,8-tetrahydropyrido [3,4-d]pyrimidin-7-formyl)-4-fluorobenzyl) phthalazin-1(2H)-one] | 0.0926 µM | 40% |  | 0.00387 µM | 76% |  | 1.58 µM | 1.13 µM | 0.784 µM | 1.01 µM |  |  |  |  |  |  |  |  |  |  | melting point: 204 to 206 °C

Further lines, with some results ahead:

IC50 [1] | inhibition at 0.1 µM [1] | IC50 [2] | IC50 [3] | inhibition at 0.01 µM [3] | IC50 [4] | IC50 ([4]; Homo sapiens, MDA-MB-468, 72 h) | IC50 ([6]; Homo sapiens, MDA-MB-231, 72 h) | IC50 ([2]; Homo sapiens, HCC1937, 72 h) | IC50 ([7]; Homo sapiens, HCT-116, 72 h) | SMILES | Tumor Volumes ([5]; 0 day, 50 mg/kg (I-1: medium)) | Anti-tumor effect compared with the combination group olaparib (50 mg/kg)/BKM120 (27.5 mg/kg) (in words) ([5]; 50 mg/kg) | Tumor Volumes ([5]; 6 days, 50 mg/kg (I-1: medium)) | Tumor Volumes [5, 8] | Tumor Volumes [5, 9] | Tumor Volumes [5, 10] | Tumor Volumes [5, 11] | Tumor Volumes [5, 12] | Inhibition of the growth of the MDA-MB-468 nude mice xenografts (in words) [5] | Inhibition rate compared with positive drugs olaparib and BKM120 (in words) [5] | other results
0.069 µM | 66% | 0.081 µM | 0.00375 µM | 81% | 0.909 µM | < 1 µM |  |  |  | Nc1ncc(-c2nc3c(c(N4CCOCC4)n2)CCN(C(=O)c2cc(Cc4n[nH]c(=O)c5ccccc45)ccc2F)C3)cn1 [I-1, 4-(3-(2-(2-aminopyrimidin-5-yl)-4-morpholinyl-5,6,7,8-tetrahydropyrido [3,4-d]pyrimidin-7-formyl)-4-fluorobenzyl) phthalazin-1(2H)-one] | 94.95 mm^3 | obviously superior | 136.45 mm^3 | 222.15 mm^3 | 301.78 mm^3 | 399.10 mm^3 | 489.89 mm^3 | 551.70 mm^3 | significantly inhibit the growth | higher | Tumor Volumes ([5]; 0 day, high, 100 mg/kg): 93.30 mm^3; Tumor Volumes ([5]; 0 day, low, 25 mg/kg): 96.16 mm^3; Dose dependence of tumor growth inhibition (in words) ([5]; 25, 50, 100 mg/kg): dose-dependent manner; Tumor Volumes ([5]; 6 days, high, 100 mg/kg): 122.80 mm^3; Tumor Volumes ([5]; 6 days, low, 25 mg/kg): 205.61 mm^3; Tumor Volumes ([5]; 12 days, high, 100 mg/kg): 145.60 mm^3; Tumor Volumes ([5]; 12 days, low, 25 mg/kg): 303.37 mm^3; Tumor Volumes ([5]; 18 days, high, 100 mg/kg): 186.00 mm^3; Tumor Volumes ([5]; 18 days, low, 25 mg/kg): 401.23 mm^3; Tumor Volumes ([5]; 24 days, high, 100 mg/kg): 209.30 mm^3; Tumor Volumes ([5]; 24 days, low, 25 mg/kg): 555.25 mm^3; Tumor Volumes ([5]; 30 days, high, 100 mg/kg): 234.10 mm^3; Tumor Volumes ([5]; 30 days, low, 25 mg/kg): 707.38 mm^3; Tumor Volumes ([5]; 34 days, high, 100 mg/kg): 250.00 mm^3; Tumor Volumes ([5]; 34 days, low, 25 mg/kg): 808.40 mm^3; Tumor weights ([5]; 50 mg/kg (I-1: medium)): 0.54; Tumor weights ([5]; high, 100 mg/kg): 0.34; Tumor weights ([5]; low, 25 mg/kg): 0.85
0.13 µM | 66% |  | 0.000395 µM | 93% |  | 1.34 µM | 0.816 µM | 0.121 µM | 0.217 µM | Nc1ccc(-c2nc3c(c(N4CCOCC4)n2)CCN(C(=O)c2cc(Cc4n[nH]c(=O)c5ccccc45)ccc2F)C3)cn1 [I-2, 4-(3-(2-(6-aminopyridin-3-yl)-4-morpholinyl-5,6,7,8-tetrahydropyrido[3,4-d]pyrimidin-7-formyl)-4-fluorobenzyl)phthalazin-1(2H)-one] |  |  |  |  |  |  |  |  |  |  | 
 | 42% |  |  | 91% |  | 1.15 µM | 0.708 µM | 0.482 µM | 0.536 µM | O=C(c1cc(Cc2n[nH]c(=O)c3ccccc23)ccc1F)N1CCc2c(nc(-c3cccc4[nH]ncc34)nc2N2CCOCC2)C1 [I-8, 4-(3-(2-(1H-indazole-4-yl)-4-morpholinyl-5,6,7,8-tetrahydropyrido[3,4-d]pyrimidin-7-formyl)-4-fluorobenzyl)phthalazin-1(2H)-one] |  |  |  |  |  |  |  |  |  |  | 
